Reference: patent US11857519B2, “Compounds and methods for the targeted degradation of enhancer of zeste homolog 2 polypeptide” (Arvinas Operations, Inc., priority 2016, dated 2024)

Each compound was assayed against T1, EZH2 (Homo sapiens, UniProt Q15910) (assay: Cellular assay of target protein degradation (VCaP cells, ELISA)). Conditions: 4 hours, protein degradation range at indicated concentration (relative to DMSO control).
T1 construct: Protocol of the Cellular Assay of Target Protein Degradation (VCaP Cells, ELISA); endogenous in cells; host or cells: VCaP cells
Type: cell-based
Experimental: Protocol of the Cellular Assay of Target Protein Degradation (VCaP Cells, ELISA).
For detection Cell Signaling PathScan Sandwich ELISA Catalog #12850 Lot 11 was used. VCaP cells were cultured in ATCC DMEM+ATCC FBS and plated 40,000/well 100 μl/well in RPMI P/S with 5% CSS Omega (bovine) serum into a 96 well plate. The cells were grown for a minimum of 3 days, dosed with compounds in 0.1% DMSO (diluted with 5% CSS) and incubated with aspiration for 4 hours. 100 μl of 1× Cell Signaling lysis buffer #9803 (36 mL dH2O+4 mL Cell Signaling lysis buffer) was added. The incubation was placed on cold room shaker for 10 minutes at speed 8-9. 5 μl to 100 μL of Diluent was transferred to ELISA plate (0.15 μg/mL−0.075 μg/mL) and stored at 4° C. overnight on cold room shaker speed 5 (gentle swirl) and then shaken next morning at 37° C. for 30 minutes. The preparation was washed 4×200 μl with ELISA wash buffer and aspirated with eight-channel aspirator. 100 μl/well of target protein detection antibody was added after, which the preparation was covered and shaken at 37° C. for 1 hour. 100 μl TMB was added, and the mixture was shaken for 5 min while under observation. When TMB turned light blue, 100 μl of Stop solution was added, and the mixture was shaken and read at 450 nm. Also read at 562 nm for background subtraction.

T1 sequence (Q15910 whole entry): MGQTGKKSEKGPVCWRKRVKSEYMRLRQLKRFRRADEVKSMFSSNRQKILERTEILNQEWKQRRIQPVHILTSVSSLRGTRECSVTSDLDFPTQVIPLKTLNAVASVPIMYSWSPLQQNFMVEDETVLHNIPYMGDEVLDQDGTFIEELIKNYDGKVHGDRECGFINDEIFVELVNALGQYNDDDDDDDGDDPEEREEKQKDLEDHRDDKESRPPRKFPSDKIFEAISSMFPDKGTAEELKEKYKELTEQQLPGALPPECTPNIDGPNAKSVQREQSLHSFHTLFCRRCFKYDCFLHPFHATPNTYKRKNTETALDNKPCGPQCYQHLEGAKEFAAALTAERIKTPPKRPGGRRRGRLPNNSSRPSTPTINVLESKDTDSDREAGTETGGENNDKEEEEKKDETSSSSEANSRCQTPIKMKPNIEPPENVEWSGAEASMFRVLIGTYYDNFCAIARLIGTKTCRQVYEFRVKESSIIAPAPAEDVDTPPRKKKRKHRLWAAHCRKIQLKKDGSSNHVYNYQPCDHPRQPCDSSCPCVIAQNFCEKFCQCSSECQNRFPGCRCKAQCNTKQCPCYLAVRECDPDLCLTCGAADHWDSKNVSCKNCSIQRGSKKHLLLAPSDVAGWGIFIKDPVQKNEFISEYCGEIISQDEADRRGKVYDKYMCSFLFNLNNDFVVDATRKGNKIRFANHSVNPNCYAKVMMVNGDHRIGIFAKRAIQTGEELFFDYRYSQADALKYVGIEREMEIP
T1 sequence (O75530 whole entry partner): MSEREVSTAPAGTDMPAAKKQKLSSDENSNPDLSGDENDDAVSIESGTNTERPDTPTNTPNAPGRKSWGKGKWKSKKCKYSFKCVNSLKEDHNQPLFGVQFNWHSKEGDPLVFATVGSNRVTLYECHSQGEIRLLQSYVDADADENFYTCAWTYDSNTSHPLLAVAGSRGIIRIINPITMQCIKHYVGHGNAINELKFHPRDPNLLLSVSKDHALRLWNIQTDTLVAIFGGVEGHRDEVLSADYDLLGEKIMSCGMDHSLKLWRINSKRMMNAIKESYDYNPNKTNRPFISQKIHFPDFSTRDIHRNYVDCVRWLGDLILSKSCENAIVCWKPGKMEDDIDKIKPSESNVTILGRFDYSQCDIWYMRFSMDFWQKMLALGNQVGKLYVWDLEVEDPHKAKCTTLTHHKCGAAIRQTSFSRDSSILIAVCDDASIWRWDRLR
T1 sequence (Q15022 whole entry partner): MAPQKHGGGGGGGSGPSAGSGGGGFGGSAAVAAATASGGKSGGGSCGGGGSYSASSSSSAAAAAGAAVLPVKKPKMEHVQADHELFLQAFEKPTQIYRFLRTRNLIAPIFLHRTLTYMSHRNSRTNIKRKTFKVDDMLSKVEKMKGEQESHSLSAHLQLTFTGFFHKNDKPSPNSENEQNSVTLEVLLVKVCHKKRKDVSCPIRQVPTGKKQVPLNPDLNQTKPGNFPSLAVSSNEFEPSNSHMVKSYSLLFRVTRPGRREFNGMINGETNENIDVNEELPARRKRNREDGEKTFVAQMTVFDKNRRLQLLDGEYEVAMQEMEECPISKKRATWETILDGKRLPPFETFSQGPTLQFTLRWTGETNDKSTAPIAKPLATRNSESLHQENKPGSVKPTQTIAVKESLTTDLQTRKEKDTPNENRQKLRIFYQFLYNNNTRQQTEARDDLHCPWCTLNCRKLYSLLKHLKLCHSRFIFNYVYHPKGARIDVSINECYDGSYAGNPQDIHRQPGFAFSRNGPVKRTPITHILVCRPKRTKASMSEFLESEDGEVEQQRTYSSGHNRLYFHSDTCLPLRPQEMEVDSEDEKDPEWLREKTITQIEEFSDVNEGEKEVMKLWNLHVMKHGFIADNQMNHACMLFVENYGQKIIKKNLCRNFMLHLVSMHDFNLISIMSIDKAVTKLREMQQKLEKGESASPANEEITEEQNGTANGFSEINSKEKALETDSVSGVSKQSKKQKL

Row | percent target protein degradation class | Compound
1 | B (B = degradation between 30% and 60%) | CCN(c1cc(-c2ccc(OCCOc3cc(-c4scnc4C)ccc3CNC(=O)[C@@H]3C[C@@H](O)CN3C(=O)[C@H](C(C)C)N3Cc4ccccc4C3=O)cc2)cc(C(=O)NCc2c(C)cc(C)[nH]c2=O)c1C)C1CCOCC1 [Compound 64, N-[(2-{2-[4-(3-{[(4,6-dimethyl-2-oxo-1,2-dihydropyridin-3-yl)methyl]carbamoyl}-5-[ethyl(oxan-4-yl)amino]-4-methylphenyl)phenoxy]ethoxy}-4-(4-methyl-1,3-thiazol-5-yl)phenyl)methyl]-4-hydroxy-1-[3-methyl-2-(1-oxo-2,3-dihydro-1H-isoindol-2-yl)butanoyl]pyrrolidine-2-carboxamide]
2 | A (A = degradation more than 60%) | CCN(c1cc(-c2ccc(OCCOCCCOc3ccc4c(c3)C(=O)N(C3CCC(=O)NC3=O)C4=O)cc2)cc(C(=O)NCc2c(C)cc(C)[nH]c2=O)c1C)C1CCOCC1 (stereo not shown) [Compound 58, N-[(4,6-dimethyl-2-oxo-1,2-dihydropyridin-3-yl)methyl]-5-{4-[2-(3-{[2-(2,6-dioxopiperidin-3-yl)-1,3-dioxo-2,3-dihydro-1H-isoindol-5-yl]oxy}propoxy)ethoxy]phenyl}-3-[ethyl(oxan-4-yl)amino]-2-methylbenzamide]
3 | B (B = degradation between 30% and 60%) | CCN(c1cc(-c2ccc(OCCCOCCOCC(=O)N[C@H](C(=O)N3C[C@H](O)C[C@H]3C(=O)NCc3ccc(-c4scnc4C)cc3)C(C)(C)C)cc2)cc(C(=O)NCc2c(C)cc(C)[nH]c2=O)c1C)C1CCOCC1 [Compound 45, (2S,4R)-1-[(2S)-2-[2-(2-{3-[4-(3-{[(4,6-dimethyl-2-oxo-1,2-dihydropyridin-3-yl)methyl]carbamoyl}-5-[ethyl(oxan-4-yl)amino]-4-methylphenyl)phenoxy]propoxy}ethoxy)acetamido]-3,3-dimethylbutanoyl]-4-hydroxy-N-{[4-(4-methyl-1,3-thiazol-5-yl)phenyl]methyl}pyrrolidine-2-carboxamide]
4 | B (B = degradation between 30% and 60%) | CCN(c1cc(-c2ccc(OCCOCCOCC(=O)N[C@H](C(=O)N3C[C@@H](O)C[C@@H]3C(=O)N[C@@H](C)c3ccc(-c4scnc4C)cc3)C(C)(C)C)cc2)cc(C(=O)NCc2c(C)cc(C)[nH]c2=O)c1C)C1CCOCC1 [Compound 96, (2R,4S)-1-((S)-2-(2-(2-(2-((3′-(((4,6-dimethyl-2-oxo-1,2-dihydropyridin-3-yl)methyl)carbamoyl)-5′-(ethyl(tetrahydro-2H-pyran-4-yl)amino)-4′-methyl-[1,1′-biphenyl]-4-yl)oxy)ethoxy)ethoxy)acetamido)-3,3-dimethylbutanoyl)-4-hydroxy-N-((S)-1-(4-(4-methylthiazol-5-yl)phenyl)ethyl)pyrrolidine-2-carboxamide]
5 | A (A = degradation more than 60%) | CCN(c1cc(-c2ccc(CN3CCN(CCOCCOCC(=O)N[C@H](C(=O)N4C[C@H](O)C[C@H]4C(=O)N[C@@H](C)c4ccc(-c5scnc5C)cc4)C(C)(C)C)CC3)cc2)cc(C(=O)NCc2c(C)cc(C)[nH]c2=O)c1C)C1CCOCC1 [Compound 114, (2S,4R)-1-((S)-2-(2-(2-(2-(4-((3′-(((4,6-dimethyl-2-oxo-1,2-dihydropyridin-3-yl)methyl)carbamoyl)-5′-(ethyl(tetrahydro-2H-pyran-4-yl)amino)-4′-methyl-[1,1′-biphenyl]-4-yl)methyl)piperazin-1-yl)ethoxy)ethoxy)acetamido)-3,3-dimethylbutanoyl)-4-hydroxy-N-((S)-1-(4-(4-methylthiazol-5-yl)phenyl)ethyl)pyrrolidine-2-carboxamide]

Continued, compound first:

Row | Compound | percent target protein degradation class
6 | CCN(c1cc(-c2ccc(OCCCCOCCOc3cc(-c4scnc4C)ccc3CNC(=O)[C@@H]3C[C@@H](O)CN3C(=O)[C@H](C(C)C)N3Cc4ccccc4C3=O)cc2)cc(C(=O)NCc2c(C)cc(C)[nH]c2=O)c1C)C1CCOCC1 [Compound 53, (2S,4R)-N-{[2-(2-{4-[4-(3-{[(4,6-dimethyl-2-oxo-1,2-dihydropyridin-3-yl)methyl]carbamoyl}-5-[ethyl(oxan-4-yl)amino]-4-methylphenyl)phenoxy]butoxy}ethoxy)-4-(4-methyl-1,3-thiazol-5-yl)phenyl]methyl}-4-hydroxy-1-[(2S)-3-methyl-2-(1-oxo-2,3-dihydro-1H-isoindol-2-yl)butanoyl]pyrrolidine-2-carboxamide] | B (B = degradation between 30% and 60%)
7 | CCN(c1cc(-c2ccc(OCCCCOc3ccc4c(c3)C(=O)N([C@H](C(=O)N3C[C@H](O)C[C@H]3C(=O)N[C@@H](C)c3ccc(-c5scnc5C)cc3)C(C)C)C4)cc2)cc(C(=O)NCc2c(C)cc(C)[nH]c2=O)c1C)C1CCOCC1 [Compound 102] | B (B = degradation between 30% and 60%)
8 | CCN(c1cc(-c2ccc(OCCOCCOCCOCCOCCOCCOCCNc3cccc4c3C(=O)N(C3CCC(=O)NC3=O)C4=O)cc2)cc(C(=O)NCc2c(C)cc(C)[nH]c2=O)c1C)C1CCOCC1 (stereo not shown) [Compound 20, N-[(4,6-dimethyl-2-oxo-1,2-dihydropyridin-3-yl)methyl]-5-[4-({1-[2-(2,6-dioxopiperidin-3-yl)-1,3-dioxo-2,3-dihydro-1H-isoindol-4-yl]-4,7,10,13,16,19-hexaoxa-1-azahenicosan-21-yl}oxy)phenyl]-3-[ethyl(oxan-4-yl)amino]-2-methylbenzamide] | B (B = degradation between 30% and 60%)
9 | CCN(c1cc(-c2ccc(OCCCCOc3cc(C(C(=O)N4C[C@H](O)C[C@H]4C(=O)N[C@@H](C)c4ccc(-c5scnc5C)cc4)C(C)C)on3)cc2)cc(C(=O)NCc2c(C)cc(C)[nH]c2=O)c1C)C1CCOCC1 (stereo partly drawn) [Compound 107, (2S,4R)-1-(2-(3-(4-(3′-((4,6-dimethyl-2-oxo-1,2-dihydropyridin-3-yl)methylcarbamoyl)-5′-(ethyl(tetrahydro-2H-pyran-4-yl)amino)-4′-methylbiphenyl-4-yloxy)butoxy)isoxazol-5-yl)-3-methylbutanoyl)-4-hydroxy-N—((S)-1-(4-(4-methylthiazol-5-yl)phenyl)ethyl)pyrrolidine-2-carboxamide] | A (A = degradation more than 60%)
10 | Cc1cc(C)c(CNC(=O)c2cc(-c3ccc(CN4CCN(CCOCCCCOCC(=O)N[C@H](C(=O)N5C[C@H](O)C[C@H]5C(=O)NCc5ccc(-c6scnc6C)cc5)C(C)(C)C)CC4)cc3)cc3c2ccn3C2CCCC2)c(=O)[nH]1 [Compound 3, 1-cyclopentyl-N-[(4,6-dimethyl-2-oxo-1,2-dihydropyridin-3-yl)methyl]-6-{4-[(4-{2-[4-({[(2S)-1-[(2S,4R)-4-hydroxy-2-({[4-(4-methyl-1,3-thiazol-5-yl)phenyl]methyl}carbamoyl)pyrrolidin-1-yl]-3,3-dimethyl-1-oxobutan-2-yl]carbamoyl}methoxy)butoxy]ethyl}piperazin-1-yl)methyl]phenyl}-1H-indole-4-carboxamide] | B (B = degradation between 30% and 60%)
